{"source": "patent US20220160721A1", "about": "“METHODS OF TREATING CANCER” (Epizyme, Inc., priority 2016, published 2022)", "key": {"[1]": {"details": "mouse, in vivo, po", "protocol": "(§1) In vivo efficacy studies: For the in vivo efficacy studies, there were 10 mice per dose group and each mouse was inoculated subcutaneously at the right flank. All cells were suspended in a 0.2 mL mixture of base media and Matrigel at 1:1 for tumor development. Bin-67 cells were inoculated at 5×10^6 cells/mouse and treatment began when the mean tumor sizes reached 146.08 mm^3 (28 days post-inoculation). COV434 cells were inoculated at 1×10^7 cells/mouse and treatment began when mean tumor sizes reached 158.88 mm^3 (20 days post-inoculation). TOV112D cells were inoculated at 5×10^6 cells/mouse and treatment began when the mean tumor size reached 128.13 mm^3 (day 14 post inoculation). Mice were assigned into groups using a randomized block design. […] Body weights were measured twice a week for the duration of the study. Tumor size was measured twice weekly in two dimensions using a caliper, and the volume was expressed in cubic millimeters. Animals were euthanized 3 hours post-final dose, with blood and tissues collected for analysis."}, "[2]": {"test": "Plasma exposure in xenograft efficacy studies", "assay_type": "in vivo, BALB/c nude mice", "details": "plasma collected 5 minutes prior or 3 hours post final dose, all models", "protocol": "as §1"}, "H3K27me3": {"tested_on": "H3K27me3", "test": "H3K27me3 ELISA in xenograft tumors", "details": "tumors harvested at study endpoints, ratio of H3K27me3 to total H3 by ELISA"}, "COV434": {"tested_on": "COV434", "test": "Time course annexin and cell cycle, COV434", "assay_type": "cell-based", "details": "COV434, after 3 days through day 14", "protocol": "(§2) 1×10^5 harvested cells were plated in triplicate in 96-well format and stained with Millipore's Guava Nexin reagent for 1 hr at RT. Percentages of cells undergoing apoptosis were measured using Millipore's Guava EasyCyte Flow Cytometer. For cell cycle analysis, 5×10^5 cells were plated in a 96 well plate, washed once with PBS, and fixed overnight in ice-cold 70% ethanol at 4° C. Fixed cells were washed with PBS, then stained with Millipore's Guava Cell Cycle Reagent and data obtained from EasyCyte Flow Cytometer."}, "SMARCA2": {"tested_on": "SMARCA2", "test": "SMARCA2 expression upon treatment in SCCOHT cell lines", "assay_type": "cell-based", "details": "over time"}, "Oral bioavailability": {"test": "Oral bioavailability", "details": "in vivo"}, "Bin-67": {"tested_on": "Bin-67", "test": "Time course annexin and cell cycle, Bin-67", "assay_type": "cell-based", "details": "Bin-67, apoptotic events as early as day 4", "protocol": "as §2, with “Percentages” for “1×10^5 harvested cells were plated in triplicate in 96-well format and stained with Millipore's Guava Nexin reagent for 1 hr at RT. Percentages”"}, "JHOS-2": {"tested_on": "JHOS-2", "test": "Time course annexin and cell cycle, JHOS-2", "assay_type": "cell-based", "details": "JHOS-2 (wild type for both SMARCA2 and SMARCA4)", "protocol": "as §2, with “Percentages” for “1×10^5 harvested cells were plated in triplicate in 96-well format and stained with Millipore's Guava Nexin reagent for 1 hr at RT. Percentages”"}, "TOV112D xenografts": {"tested_on": "TOV112D xenografts", "test": "In vivo efficacy study, TOV112D xenograft", "parameters": "species or system BALB/c nude mice", "details": "day 14", "protocol": "as §1"}, "COV434 xenografts": {"tested_on": "COV434 xenografts", "test": "In vivo efficacy study, COV434 xenograft", "parameters": "species or system BALB/c nude mice"}, "Bin-67 xenografts": {"tested_on": "Bin-67 xenografts", "test": "In vivo efficacy study, Bin-67 xenograft", "parameters": "species or system BALB/c nude mice", "details": "day 18", "protocol": "as §1"}}, "data": [{"smiles": "CCN(c1cc(-c2ccc(CN3CCOCC3)cc2)cc(C(=O)NCc2c(C)cc(C)[nH]c2=O)c1C)C1CCOCC1", "note": "[tazemetostat]", "values": [{"measurement": "tolerability, bodyweight loss and clinical observations", "setting": "[1]", "result": "well tolerated with minimal bodyweight loss and no other clinical observations"}, {"measurement": "systemic exposure in plasma", "setting": "[2]", "result": "Dose-dependent systemic exposure"}, {"measurement": "H3K27me3 levels in tumors", "setting": "H3K27me3", "result": "robust inhibition"}, {"measurement": "cell cycle and apoptosis", "setting": "COV434", "result": "increase in the percentage of cells in sub-G1 phase and a concomitant reduction in G2 phase"}, {"measurement": "SMARCA2 expression", "setting": "SMARCA2", "result": "time-dependent increases in SMARCA2 expression"}, {"measurement": "oral bioavailability", "setting": "Oral bioavailability", "result": "orally bioavailable"}, {"measurement": "cell cycle and apoptosis", "setting": "Bin-67", "result": "more modest increase in the percentage of sub-G1 cells"}, {"measurement": "cell cycle and apoptosis", "setting": "JHOS-2", "result": "did not show any cell cycle changes or apoptotic events"}, {"measurement": "tumor growth inhibition (TGI)", "setting": "TOV112D xenografts; 125 mg/kg orally BID", "result": 28, "unit": "%"}, {"measurement": "tumor growth inhibition (TGI)", "setting": "TOV112D xenografts; 500 mg/kg orally BID", "result": 35, "unit": "%"}, {"measurement": "tumor growth inhibition (TGI)", "setting": "COV434 xenografts; 125 mg/kg orally BID, day 28", "result": 74, "unit": "%"}, {"measurement": "tumor regrowth", "setting": "COV434 xenografts; 500 mg/kg cohort, 28 days after dose cessation", "result": "not observed"}, {"measurement": "animals having unmeasurable tumors", "setting": "COV434 xenografts; 500 mg/kg orally BID, day 28", "result": "7 of the 8"}, {"measurement": "tumor response", "setting": "COV434 xenografts; 500 mg/kg orally BID, day 28", "result": "complete regressions"}, {"measurement": "tumor growth inhibition (TGI)", "setting": "Bin-67 xenografts; 125 mg/kg orally BID", "result": 56, "unit": "%"}, {"measurement": "tumor growth inhibition (TGI)", "setting": "Bin-67 xenografts; 250 mg/kg orally BID", "result": 87, "unit": "%"}, {"measurement": "average tumor volume", "setting": "Bin-67 xenografts; 500 mg/kg orally BID", "result": 41, "unit": "mm^3"}, {"measurement": "tumor response", "setting": "Bin-67 xenografts; 500 mg/kg orally BID", "result": "regressions in all 10 animals"}]}]}
